In publication PMC4467917 (ACS infectious diseases, 2015):
Like-named read-outs stand apart in the source and are kept apart here.

Experiments:
xanthine oxidase [1] = molecular target: T1, xanthine oxidase (Mus musculus, UniProt Q00519); assay: Effect of allopurinol predosing on PZA and POA exposure in CD-1 mice; conditions: allopurinol pretreatment either 4 doses of 20 mg/kg or 1 dose of 40 mg/kg
[2] = Solubility of POA in aqueous media; assay type: physicochemical
[3] = tested on: acute intravenous infection; conditions: administered at 2 to 5% in food; cited from earlier work
[4] = tested on: M. tuberculosis H37Rv or H37Ra; assay: Susceptibility on solid media; assay type: cell-based, Mycobacterium tuberculosis
[5] = C3HeB/FeJ, mouse, in vivo
[6] = female, rabbit, in vivo, po, 250 mg/kg
[7] = tested on: M. tuberculosis strains H37Rv and H37Ra; assay: In vitro growth inhibitory assay in liquid medium; assay type: cell-based, Mycobacterium tuberculosis
xanthine oxidase [8] = molecular target: T1, xanthine oxidase; conditions: female, CD-1, mouse, in vivo, po, 40 mg/kg
[9] = not given; remark: listed apart in the source
[10] = not given; remark: listed apart in the source
[11] = Plasma pharmacokinetics of oral PZA or POA in naïve guinea pigs
[12] = Plasma pharmacokinetics of oral PZA or POA in naïve New Zealand white rabbits; assay type: in vivo, rabbit
in vivo [13] = conditions: female, CD-1, mouse, plasma, po, 150 mg/kg
[14] = assay type: in vivo, human; conditions: for CmaxPZA: Korean subjects, PZA 22–30 mg/kg
[15] = Oral pharmacokinetics of POA in preclinical species; assay type: in vivo; conditions: single oral POA dose; mice, guinea pigs and rabbits
in vivo [16] = conditions: BALB/c, mouse, po, 150 mg/kg
xanthine oxidase [17] = assay: Effect of allopurinol predosing on PZA and POA exposure in NZW rabbits; assay type: in vivo, rabbit; conditions: for AUC: female, New Zealand white, rabbit, plasma, 40 mg/kg
[18] = Plasma pharmacokinetics of PZA and POA metabolite in uninfected marmosets
[19] = not given; remark: listed apart in the source
in vivo [20] = conditions: female, New Zealand white (NZW), rabbit, po, 250 mg/kg
in vivo [21] = conditions: female, C3HeB/FeJ, mouse, plasma, po, 150 mg/kg
in vivo [22] = conditions: C3HeB/FeJ, mouse, po
[23] = cited from earlier work
[24] = female, BALB/c, mouse, in vivo, po, 150 mg/kg
[25] = female, Hartley, guinea pig, in vivo, po, 300 mg/kg
[26] = both, human, plasma, oral, 1500 mg
[27] = over a 24 h period, 14 TB patients, 1500 mg PZA, from PK model
[28] = female, New Zealand white, rabbit, plasma, po
[29] = both, human, plasma, po, 1500 mg

T1 sequence (Q00519 whole entry): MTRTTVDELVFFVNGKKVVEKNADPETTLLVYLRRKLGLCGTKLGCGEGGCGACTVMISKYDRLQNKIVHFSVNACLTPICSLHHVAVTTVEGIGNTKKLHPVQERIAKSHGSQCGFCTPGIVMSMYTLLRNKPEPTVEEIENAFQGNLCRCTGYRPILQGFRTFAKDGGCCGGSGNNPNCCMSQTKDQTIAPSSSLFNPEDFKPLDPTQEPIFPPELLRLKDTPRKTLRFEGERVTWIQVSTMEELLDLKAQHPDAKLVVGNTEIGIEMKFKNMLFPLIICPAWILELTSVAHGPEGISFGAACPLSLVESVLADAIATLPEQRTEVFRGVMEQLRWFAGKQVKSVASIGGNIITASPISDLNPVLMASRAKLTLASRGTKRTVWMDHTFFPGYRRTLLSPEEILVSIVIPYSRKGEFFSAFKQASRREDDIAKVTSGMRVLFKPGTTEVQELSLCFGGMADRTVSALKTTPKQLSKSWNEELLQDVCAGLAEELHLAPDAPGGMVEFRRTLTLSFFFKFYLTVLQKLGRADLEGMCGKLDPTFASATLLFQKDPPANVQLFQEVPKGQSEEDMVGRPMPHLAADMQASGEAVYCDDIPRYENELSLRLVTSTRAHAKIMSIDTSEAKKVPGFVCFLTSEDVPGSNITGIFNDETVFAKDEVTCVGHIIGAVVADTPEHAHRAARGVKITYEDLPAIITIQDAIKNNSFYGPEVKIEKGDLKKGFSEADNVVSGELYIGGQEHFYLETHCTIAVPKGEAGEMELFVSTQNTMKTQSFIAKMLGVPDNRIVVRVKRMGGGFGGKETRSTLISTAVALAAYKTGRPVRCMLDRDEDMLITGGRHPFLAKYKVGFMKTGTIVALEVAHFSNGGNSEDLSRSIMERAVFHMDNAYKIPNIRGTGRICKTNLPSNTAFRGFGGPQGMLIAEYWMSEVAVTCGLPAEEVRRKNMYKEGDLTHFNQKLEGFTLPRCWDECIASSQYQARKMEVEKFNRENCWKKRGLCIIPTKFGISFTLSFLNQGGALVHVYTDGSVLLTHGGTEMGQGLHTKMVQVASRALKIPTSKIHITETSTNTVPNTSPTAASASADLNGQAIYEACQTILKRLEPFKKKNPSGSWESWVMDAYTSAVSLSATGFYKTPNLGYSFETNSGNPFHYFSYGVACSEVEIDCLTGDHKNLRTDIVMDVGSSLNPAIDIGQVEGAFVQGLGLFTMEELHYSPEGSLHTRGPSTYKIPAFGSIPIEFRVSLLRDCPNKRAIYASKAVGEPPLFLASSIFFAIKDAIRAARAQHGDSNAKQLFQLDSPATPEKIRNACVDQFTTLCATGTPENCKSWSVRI

For `O=C(O)c1cnc(O)cn1` [5-hydroxy-POA, 5-hydroxypyrazinoate], the “change in 5-hydroxy-POA exposure” value (xanthine oxidase [1]) was “concomitant decrease”.

With `O=C(O)c1cnccn1` [POA, pyrazinoic acid] the “concentrations at 24 h post PZA dosing” value was “below the limit of quantification”, the tissue-to-plasma ratios (female, New Zealand White, rabbit, in vivo) was 0.2 and 0.5 and the “solubility in aqueous media” value [2] was “poor solubility”. The “efficacy in a mouse model of acute intravenous infection” value [3] was “lack of POA efficacy”, the “potency relative to PZA on agar plates” value [4] was “twice as potent as PZA” and the “CLm/Fm, oral clearance of the POA metabolite” value ([5]; po) was 2.18 (6) L/h/kg. For the same molecule, the “Vm/Fm, oral volume of distribution of the POA metabolite” value ([5]; po) was 0.47 (13) L/kg, the “AUCPOA met (POA metabolite derived from dosing of PZA)” value (“AUCPOA met” for short) ([5]; po, 150 mg/kg) was 76 (16) µg·h/ml and the AUCPOA/AUCPZA ratio ([5]; po, 150 mg/kg) was 0.18 (0.02). For the same molecule, the CmaxPOA met ([5]; po, 150 mg/kg) was 16(5) µg/mL, the “AUCPOA met” value ([6]; New Zealand white (NZW)) was 504 (139) µg·h/ml and the CmaxPOA met ([6]; New Zealand white (NZW)) was 111 (27) µg/mL. The AUCPOA/AUCPZA ratio ([6]; New Zealand white) was 1.70 (0.21), the “potency relative to PZA in liquid medium” value ([7]; pH 5.5, 5.8 and 6.5, H37Ra and H37Rv) was “consistently more potent than PZA” and the “fold more potent than PZA in vitro” value ([7]; various pH and inocula) was 2- to 4 fold. For the same molecule, the “fold increase in POA exposure” value (xanthine oxidase [8]) was 12 fold, the “AUCPOA met” value [9, 24] was 131 (13) µg·h/ml and the AUCPOA/AUCPZA ratio [9, 24] was 0.38 (0.02). The CmaxPOA met [9, 24] was 43 (10) µg/mL, the CmaxPOA ([9]; naïve BalbC mice, single oral POA dose 150 mg/kg, average (SD)) was 155(33) µg/mL and the CmaxPOA ([10]; naïve CD1 mice, single oral POA dose 150 mg/kg, average (SD)) was 102 (32) µg/mL. The AUC [11, 25] was 449 µg·h/mL, the CmaxPOA ([11]; naïve guinea pigs, single oral POA dose 300 mg/kg, average (SD)) was 165 (74) µg/mL and the AUC ([12]; female, New Zealand white, rabbit, plasma, po, 200 mg/kg) was 2010 µg·h/mL. For the same molecule, the CmaxPOA ([12]; naïve rabbits, single oral POA dose 200 mg/kg, average (SD)) was 244 (51) µg/mL, the AUC (in vivo [13]) was 136 µg·h/mL and the “POA/PZA exposure ratio in plasma” value ([14]; active TB patients) was “approximately 0.2”. The clearance [14, 26] was 31.7 mL/min, the “POA/PZA exposure ratio (range)” value [14, 27] was 17–32% and the “median POA/PZA exposure ratio” value [14, 27] was 19%. The oral bioavailability [15] was “orally bioavailable”, the AUC (in vivo [16]; female) was 287 µg·h/mL and the “effect of allopurinol predosing on POA exposure” value (xanthine oxidase [17]; rabbits, allopurinol 3 doses of 40 mg/kg followed by oral PZA 150 mg/kg) was “no effect”.

In the case of `NC(=O)c1cnccn1` [PZA, pyrazinamide], the “concentrations at 24 h post PZA dosing” value is reported as “below the limit of quantification”, the AUC ([18]; marmoset (Callithrix jacchus), in vivo, po, 125 mg/kg) is reported as 743 µg·h/mL and the “ka, absorption rate constant” value ([18]; marmosets, PK model typical value (standard error)) is reported as 0.81 (7) h^−1. For the same molecule, the CL/F ([18]; monkey, in vivo, po, 125 mg/kg) was 3.83 mL/min/kg, the Vd/F ([18]; monkey, in vivo, po, 125 mg/kg) was 1.1 L/kg and the k el ([18]; monkey, in vivo, po, 125 mg/kg) was 5.83e-05 s⁻¹. The “human-equivalent PZA dose” value ([18]; naïve marmosets, calculated to achieve a target AUC of 450 mg·h/L) was 100 mg/kg, the CmaxPZA ([18]; naïve marmosets, single oral PZA dose 125 mg/kg, average (SD)) was 80 (47) µg/mL and the “human-equivalent PZA dose” value [5] was 160 mg/kg. The “ka, absorption rate constant” value [5] was 220 (1) h^−1, the CmaxPZA ([5]; po, 150 mg/kg) was 89 (20) µg/mL and the CmaxPZA ([6]; New Zealand white (NZW)) was 90 (35) µg/mL. The “susceptibility of H37Rv compared with H37Ra” value ([7]; across the pH range) was “less susceptible to PZA than H37Ra”, the “ka, absorption rate constant” value ([9]; BALB/c mice, PK model typical value (standard error)) was 18 (8) h^−1 and the “human-equivalent PZA dose” value ([9]; BALB/c, mouse, in vivo) was 175 mg/kg. The CmaxPZA [9, 24] was 163 (38) µg/mL, the “ka, absorption rate constant” value ([19]; C3HeB/FeJ mice, PK model typical value (standard error)) was 4.47 (21) h^−1 and the CmaxPZA ([19]; naïve C3HeB/FeJ mice, single oral PZA dose 150 mg/kg, average (SD)) was 190 (24) µg/mL. The AUC (in vivo [20]) was 296 µg·h/mL, the AUC (in vivo [21]) was 580 µg·h/mL and the CL/F (in vivo [21]) was 10.3 mL/min/kg. For the same molecule, the Vd/F (in vivo [21]) was 1.02 L/kg, the k el (in vivo [21]) was 0.000169 s⁻¹ and the “ka, absorption rate constant” value ([10]; CD1 mice, PK model typical value (standard error)) was 15 (11) h^−1. For the same molecule, the CmaxPZA ([10]; naïve CD1 mice, single oral PZA dose 150 mg/kg, average (SD)) was 109 (11) µg/mL, the AUC [11, 25] was 342 µg·h/mL and the CL/F [11, 25] was 12.5 mL/min/kg. The Vd/F [11, 25] was 2.54 L/kg, the k el [11, 25] was 8.06e-05 s⁻¹ and the “ka, absorption rate constant” value ([11]; guinea pigs, PK model typical value (standard error NA)) was 7.7 (NA) h^−1. For the same molecule, the “human-equivalent PZA dose” value ([11]; naïve guinea pigs, calculated to achieve a target AUC of 450 mg·h/L) was 400 mg/kg, the CmaxPZA ([11]; naïve guinea pigs, single oral PZA dose 300 mg/kg, average (SD)) was 179 (100) µg/mL and the CL/F (in vivo [22]) was 6.33 mL/min/kg. It also gave a Vd/F (in vivo [22]) of 1.85 L/kg, an AUC (in vivo [22]; 150 mg/kg) of 425 µg·h/mL and a CL/F [12, 28] of 12.5 mL/min/kg. It also gave a Vd/F [12, 28] of 3.72 L/kg, a k el [12, 28] of 5.56e-05 s⁻¹ and an AUC ([12]; female, New Zealand white, rabbit, plasma, po, 300 mg/kg) of 457 µg·h/mL. The “human-equivalent PZA dose” value ([12]; naïve rabbits, calculated to achieve a target AUC of 450 mg·h/L) was 300 mg/kg, the CmaxPZA ([12]; naïve rabbits, single oral PZA dose 300 mg/kg, average (SD)) was 82 (17) µg/mL and the “ka, absorption rate constant” value ([12]; rabbits, PK model typical value (standard error)) was 4.8 (2) h^−1. The AUC (in vivo [13]) was 210 µg·h/mL, the CL/F (in vivo [13]) was 12.5 mL/min/kg and the Vd/F (in vivo [13]) was 1.28 L/kg. It also gave a k el (in vivo [13]) of 0.000161 s⁻¹, a CmaxPZA ([14]; single dose) of 43 µg/mL and a CmaxPZA ([14]; steady state) of 59 µg/mL. The “ka, absorption rate constant” value ([14]; TB patients, PK model typical value (standard error)) was 0.72 (18) h^−1, the clearance [14, 26] was 28.3 mL/min and the k el [14, 26] was 1.58e-05 s⁻¹. It also gave an AUC ([14]; both, human, plasma, po) of 617 to 738 µg·h/mL, a CL/F [14, 29] of 0.467 mL/min/kg and a Vd/F [14, 29] of 0.49 L/kg. For the same molecule, the AUC (in vivo [16]) was 388 µg·h/mL, the CL/F (in vivo [16]; female) was 7.83 mL/min/kg and the Vd/F (in vivo [16]; female) was 0.78 L/kg. The k el (in vivo [16]; female) was 0.000167 s⁻¹, the ““normal” peak plasma concentrations” value ([23]; 1 to 2 h postdose) was 20 to 60 µg/mL and the “mean AUC” value ([23]; TB patients receiving a standard daily dose of 1500 mg PZA) was 380 to 625 µg·h/mL.

For `Oc1ncnc2[nH]ncc12` [allopurinol], the AUC (xanthine oxidase [17]) was 8 µg·h/mL.

For `O=c1[nH]c(=O)c2c[nH]nc2[nH]1` [oxypurinol], the AUC (xanthine oxidase [17]) was 124 µg·h/mL.
